The results in this text go back to patent publication US20250034136A1 (Nimbus Wadjet, Inc., priority 2023, published 2025).

Experiment [1] relates to p21 induction in HCT116 cells. As to the kind of experiment: p21 induction in HCT116 cells. The class given is cell-based. The settings on record: Homo sapiens, HCT-116, 24 h, HCT116 cells, 24 h compound incubation; read-out: P21_EC50. Summed up:
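EC50 from non-linear curve fit of p21 immunofluorescence (800 nm), with GAPDH (700 nm) read alongside. DMSO and a reference WRN inhibitor served as low and high controls. Cells (2,000/well) got 11 compound concentrations in duplicate for 24 h at 37 °C.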

In experiment [2] the target is WRN (BV08), human Werner helicase (Uniprot Q14191, amino acids 517-1235 with L1074F point mutation) (Homo sapiens (Human), UniProt Q14191, L1074F). Put plainly: WRN (BV08) ADP-Glo assay. It is filed as biochemical. The settings on record: class symbols A-E, read-out: ADP-Glo_hWRN_IC50.
Chain of WRN (BV08), human Werner helicase (Uniprot Q14191, amino acids 517-1235 with L1074F point mutation) (Q14191 other isoform, or with tags, fused parts or gaps L1074F (already in the parent)): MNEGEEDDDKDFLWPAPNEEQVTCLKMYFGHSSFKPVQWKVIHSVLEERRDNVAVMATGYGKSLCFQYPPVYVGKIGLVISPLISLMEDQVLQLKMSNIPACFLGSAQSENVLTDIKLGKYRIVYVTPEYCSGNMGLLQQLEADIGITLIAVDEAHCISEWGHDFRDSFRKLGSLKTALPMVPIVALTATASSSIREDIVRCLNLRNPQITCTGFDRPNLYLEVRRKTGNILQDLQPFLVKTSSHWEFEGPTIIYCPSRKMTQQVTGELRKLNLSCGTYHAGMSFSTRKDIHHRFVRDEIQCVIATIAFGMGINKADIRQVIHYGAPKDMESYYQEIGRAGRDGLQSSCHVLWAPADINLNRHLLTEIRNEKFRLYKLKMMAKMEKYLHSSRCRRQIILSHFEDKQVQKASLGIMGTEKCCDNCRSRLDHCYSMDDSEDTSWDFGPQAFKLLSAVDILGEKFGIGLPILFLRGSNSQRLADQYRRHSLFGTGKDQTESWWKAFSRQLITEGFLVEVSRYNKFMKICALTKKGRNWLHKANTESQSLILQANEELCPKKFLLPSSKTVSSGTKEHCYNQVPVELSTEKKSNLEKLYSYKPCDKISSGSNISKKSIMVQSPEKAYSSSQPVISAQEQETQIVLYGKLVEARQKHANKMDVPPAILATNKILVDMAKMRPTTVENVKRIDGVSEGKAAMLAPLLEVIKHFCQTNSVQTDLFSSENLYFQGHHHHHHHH

The structures appear in SMILES notation.

As for `CCc1c(N2CCN(C(=O)c3ncnc(C)c3O)[C@H]3CC[C@@H]32)c(=O)c2nc(N3CCC4(COC4)C3)cnc2n1CC(=O)Nc1ccc(C(F)(F)F)cc1Cl` [I-290, N-[2-chloro-4-(trifluoromethyl)phenyl]-2-{6-ethyl-7-[(1S,6S)-5-(5-hydroxy-6-methylpyrimidine-4-carbonyl)-2,5-diazabicyclo[4.2.0]octan-2-yl]-2-{2-oxa-6-azaspiro[3.4]octan-6-yl}-8-oxo-5H,8H-pyrido[2,3-b]pyrazin-5-yl}acetamide], the EC50 in experiment [1] was below 0.5 µM. For the same compound, in experiment [2], the IC50 was in the range of 0.005 to 0.05 µM.

Turning to `CCc1c(N2CCN(C(=O)c3c(OC)ncc(COC)c3O)[C@H]3CC[C@@H]32)c(=O)c2nc(N(C)C)cnc2n1CC(=O)Nc1ccc(C(F)(F)F)cc1Cl` [I-292, N-[2-chloro-4-(trifluoromethyl)phenyl]-2-[2-(dimethylamino)-6-ethyl-7-[(1S,6S)-5-[4-hydroxy-2-methoxy-5-(methoxymethyl)pyridine-3-carbonyl]-2,5-diazabicyclo[4.2.0]octan-2-yl]-8-oxo-5H,8H-pyrido[2,3-b]pyrazin-5-yl]acetamide], the EC50 in experiment [1] is above 5 µM. In addition, the IC50 in experiment [2] lay in the range of 0.005 to 0.05 µM.

For `CCc1c(N2CCN(C(=O)c3ncnc(C)c3O)[C@H]3CC[C@@H]32)c(=O)c2nc(N(C)C3CCC3O)cnc2n1CC(=O)Nc1ccc(C(F)(F)F)cc1Cl` (stereo partly drawn) [I-293, N-[2-chloro-4-(trifluoromethyl)phenyl]-2-{6-ethyl-7-[(1S,6S)-5-(5-hydroxy-6-methylpyrimidine-4-carbonyl)-2,5-diazabicyclo[4.2.0]octan-2-yl]-2-[(2-hydroxycyclobutyl)(methyl)amino]-8-oxo-5H,8H-pyrido[2,3-b]pyrazin-5-yl}acetamide], the EC50 in experiment [1] was below 0.5 µM. The IC50 in experiment [2] fell in the range of 0.005 to 0.05 µM.

As for `CCc1c(N2CCN(C(=O)c3ncnc(C)c3O)[C@H]3CC[C@@H]32)c(=O)c2nc(N(C)[C@H]3CC[C@H](O)C3)cnc2n1CC(=O)Nc1ccc(C(F)(F)F)cc1Cl` [I-299, N-[2-chloro-4-(trifluoromethyl)phenyl]-2-{6-ethyl-7-[(1S,6S)-5-(5-hydroxy-6-methylpyrimidine-4-carbonyl)-2,5-diazabicyclo[4.2.0]octan-2-yl]-2-{[(1S,3S)-3-hydroxycyclopentyl](methyl)amino}-8-oxo-5H,8H-pyrido[2,3-b]pyrazin-5-yl}acetamide], the EC50 in experiment [1] was below 0.5 µM. Further, in experiment [2], the IC50 lay within 0.005 to 0.05 µM.

As for `CCc1c(N2CCN(C(=O)c3ncnc(C)c3O)[C@H]3CC[C@@H]32)c(=O)c2nc(N(C)[C@@H]3CC[C@H](O)C3)cnc2n1CC(=O)Nc1ccc(C(F)(F)F)cc1Cl` [I-300, N-[2-chloro-4-(trifluoromethyl)phenyl]-2-{6-ethyl-7-[(1S,6S)-5-(5-hydroxy-6-methylpyrimidine-4-carbonyl)-2,5-diazabicyclo[4.2.0]octan-2-yl]-2-{[(1R,3S)-3-hydroxycyclopentyl](methyl)amino}-8-oxo-5H,8H-pyrido[2,3-b]pyrazin-5-yl}acetamide], the EC50 in experiment [1] was below 0.5 µM. For the same compound, the IC50 in experiment [2] fell in the range of 0.005 to 0.05 µM.

In the case of `CCc1c(N2CCN(C(=O)c3ncnc(C)c3O)[C@H]3CC[C@@H]32)c(=O)c2nc(N(C)[C@@H]3CC[C@@H](O)C3)cnc2n1CC(=O)Nc1ccc(C(F)(F)F)cc1Cl` [I-301, N-[2-chloro-4-(trifluoromethyl)phenyl]-2-{6-ethyl-7-[(1S,6S)-5-(5-hydroxy-6-methylpyrimidine-4-carbonyl)-2,5-diazabicyclo[4.2.0]octan-2-yl]-2-{[(1R,3R)-3-hydroxycyclopentyl](methyl)amino}-8-oxo-5H,8H-pyrido[2,3-b]pyrazin-5-yl}acetamide], the EC50 in experiment [1] is below 0.5 µM. In experiment [2], the IC50 was 0.005 to 0.05 µM.

Turning to `CCc1c(N2CCN(C(=O)c3ncnc(C)c3O)[C@H]3CC[C@@H]32)c(=O)c2nc(N(C)[C@H]3CC[C@@H](O)C3)cnc2n1CC(=O)Nc1ccc(C(F)(F)F)cc1Cl` [I-302, N-[2-chloro-4-(trifluoromethyl)phenyl]-2-{6-ethyl-7-[(1S,6S)-5-(5-hydroxy-6-methylpyrimidine-4-carbonyl)-2,5-diazabicyclo[4.2.0]octan-2-yl]-2-{[(1S,3R)-3-hydroxycyclopentyl](methyl)amino}-8-oxo-5H,8H-pyrido[2,3-b]pyrazin-5-yl}acetamide], the EC50 in experiment [1] was below 0.5 µM. Further, the IC50 in experiment [2] lay within 0.005 to 0.05 µM.
